Measured values: patent US20250154288A1, “CYTOTOXICITY TARGETING CHIMERAS FOR C-C CHEMOKINE RECEPTOR 2-EXPRESSING CELLS” (GLAXOSMITHKLINE INTELLECTUAL PROPERTY DEVELOPMENT LIMITED, priority 2022, published 2025)

Assay: Blood drug concentration analysis (LC-MS/MS) in In Vivo Depletion Assay
Conditions: human CCR2 (hCCR2) knock-in, 057 background, mouse, whole blood, hCCR2 knock-in mice, IV 0.1 mpk compound + 10 mpk anti-cotinine antibody, 48 hours post-dose, read-out: Exposure of Compound of Formula (I) 48 hours post-dose
Method: Human CCR2 (hCCR2) knock-in mice (057 background) were dosed intravenously with a PBS solution containing a compound of Formula (I) to measure depletion of CCR2 expressing cells in peripheral blood. Peripheral blood from IV dosed mice was also analyzed to determine PK properties of the ARM compounds of Formula (I).
Administration to Animal: Solution formulation of antibody and compound of Formula (I) was injected (bolus injection) to the restrained mouse in the right/left lateral tail vein. Animals were dosed with 0.1 milligram per kilogram (mpk) of the compound of Formula (I) and 10 mpk of the anti-cotinine antibody.
Collection of Blood for PK: Blood was collected at time points 0.25 hour, 2 hours, and […] following administration (50 μL/time point) through retro-orbital bleeding under mild isoflurane anesthesia.
Terminal bleeding at end of experiment (48 hr): Approximately 250 μL of blood in K2EDTA tube and approximately 250 μL of blood in SST (serum separation tube) was collected from each mouse through retro-orbital bleeding under deep isoflurane anesthesia. After bleeding, each mouse was sacrificed by cervical dislocation. The blood distribution at termination was determined as follows: • For PK: 50 μL of K2EDTA blood was transferred to another tube for PK • Flow cytometry: Remaining blood (˜200 μL) was used for flow cytometry analysis. • For serum collection: serum separator tubes (BD) were centrifuged at 4° C., 5000 rpm for 15 minutes. Approximately 100 μL serum was separated and stored at −80° C. for further usage. • Blood drug concentration: Samples collected at the various timepoints (0.25 hr, 2 hr, 24 and 48 hr) were analyzed to determine blood drug concentration.
Drug concentration in blood samples was determined by an LC-MS/MS-based bioanalytical method developed at Syngene. Samples were analyzed on Q-Trap, API-5500 LC-MS/MS system coupled with Exion UHPLC system from SCIEX, USA operated in multiple reaction monitoring mode employing electrospray ionization technique in positive polarity. Analyte and internal standard peaks were resolved on Synergi Polar, 75×2.0 mm, 4μ column using mobile phase 10 mM Ammonium acetate in Milli-Q water as phase A and 0.1% Formic acid in acetonitrile as Phase B. Gradient elution was performed with initial composition 95% Phase A at 0.0 min, holding it for 0.2 minutes, ramping to 5% by 1.0 minute, keeping the same for next 0.5 minutes and coming back to 95% by 1.6 minutes. The total run time was 2 minutes.
Working dilutions for calibration curve and quality control standards were prepared by serially diluting 20 mg/mL stock solution with DMSO. Spiked concentrations for calibration curve in the whole blood ranged from 1 ng/mL to 1000 ng/mL. The working solution of internal standard (Verapamil, 25 ng/mL) was prepared in acetonitrile. 10 μL of the study sample and calibration curve, quality control, and blank whole blood samples were aliquoted in 96 deep well plates for processing. 10 μL of Milli-Q water was added to all the samples and briefly vortexed to initiate complete hemolysis. 10 μL of 20 mM dithiothreitol (OTT) was added to all the samples and incubated for 30 minutes at 37° C. The addition of DTT enhanced the recovery of ARM compounds of Formula (I) from the biological matrix. 300 μL of working internal standard solution was added to all samples except total blank and wash samples, where 300 μL of acetonitrile was added. All the samples were vortex mixed for 5 minutes, followed by centrifugation at 4000 rpm for 10 minutes at 4° C. Supernatants were transferred to the loading plate and injected 3 μL to LC-MS/MS system for analysis. The results are shown below in Table 4 and are reported as compound exposure 48 hours post-dose

SMILES | concentration at 48 h
CO[C@@H]1COCC[C@@H]1N[C@@H]1CC[C@](CCCCCNC(=O)[C@H]2CC[C@H](NC(=O)CCCO[C@H]3CC[C@H](OCCNC(=O)[C@H]4CC(=O)N(C)[C@@H]4c4cccnc4)CC3)CC2)(C(=O)N2CCc3ncc(C(F)(F)F)cc3C2)C1 [Example 9, (2S,3S)-N-(2-(((1R,4S)-4-(4-(((1S,4R)-4-((5-((1S,3R)-3-(((3S,4S)-3-Methoxytetrahydro-2H-pyran-4-yl)amino)-1-(3-(trifluoromethyl)-5,6,7,8-tetrahydro-1,6-naphthyridine-6-carbonyl)cyclopentyl)pentyl)carbamoyl)cyclohexyl)amino)-4-oxobutoxy)cyclohexyl)oxy)ethyl)-1-methyl-5-oxo-2-(pyridin-3-yl)pyrrolidine-3-carboxamide] | 0.0498 µg/mL
CO[C@@H]1COCC[C@@H]1N[C@@H]1CC[C@@](C(=O)N2Cc3cc(C(F)(F)F)cnc3[C@@H](NC(=O)[C@H]3CC[C@H](NC(=O)CCCO[C@H]4CC[C@H](OCCNC(=O)[C@H]5CC(=O)N(C)[C@@H]5c5cccnc5)CC4)CC3)C2)(C(C)C)C1 [Example 15, (2S,3S)-N-(2-(((1R,4S)-4-(4-(((1S,4R)-4-(((S)-6-((1S,3R)-1-isopropyl-3-(((3S,4S)-3-methoxytetrahydro-2H-pyran-4-yl)amino)cyclopentane-1-carbonyl)-3-(trifluoromethyl)-5,6,7,8-tetrahydro-1,6-naphthyridin-8-yl)carbamoyl)cyclohexyl)amino)-4-oxobutoxy)cyclohexyl)oxy)ethyl)-1-methyl-5-oxo-2-(pyridin-3-yl)pyrrolidine-3-carboxamide] | 0.035 µg/mL
CO[C@@H]1COCC[C@@H]1N[C@@H]1CC[C@@](C(=O)N2CCc3nc(CCCCOc4cccc(C(=O)NCCOCCOCCOCCOCCOCCOCCOCCOCCOCCNC(=O)[C@H]5CC(=O)N(C)[C@@H]5c5cccnc5)c4)c(C(F)(F)F)cc3C2)(C(C)C)C1 [Example 22, (2S,3S)—N-(1-(3-(4-(6-((1S,3R)-1-Isopropyl-3-(((3S,4S)-3-methoxytetrahydro-2H-pyran-4-yl)amino)cyclopentane-1-carbonyl)-3-(trifluoromethyl)-5,6,7,8-tetrahydro-1,6-naphthyridin-2-yl)butoxy)phenyl)-1-oxo-5,8,11,14,17,20,23,26,29-nonaoxa-2-azahentriacontan-31-yl)-1-methyl-5-oxo-2-(pyridin-3-yl)pyrrolidine-3-carboxamide] | 0.0155 µg/mL
